These results are taken from patent publication US11427558B1, “Indazoles and azaindazoles as LRRK2 inhibitors” (ESCAPE Bio, Inc., priority 2019, dated 2022).

Experiment [1] has as its target Recombinant wild type LRRK2 protein (Homo sapiens (Human), UniProt Q5S007). Nature of the experiment: LRRK2 kinase activity, LanthaScreen TR-FRET assay (wild type). Format: biochemical. The conditions noted are these: LRRKtide 400 nM, 25 μM ATP, 60 min; read-out: LRRK2 WT IC50. The protocol: (§1) LRRK2 kinase activity was measured using a LanthaScreen™ Kinase Activity Assay from ThermoFisher Scientific. Recombinant wild type or G2019S-LRRK2 protein (Life Technologies, PR8604B or PV4881, respectively), was incubated with a fluorescein-labeled peptide substrate called LRRKtide that is based upon ezrin/radixin/moesin (ERM) (Life Technologies, PV4901) in the presence of ATP and serially diluted compound. […] Compound-dependent inhibition of the TR-FRET signal was used to generate a concentration-response curve for IC50 determination.
(§2) After 60 min incubation at room temperature, the reaction was stopped by addition of 10 μL of 2× stop solution containing a final concentration of 2 nM anti-pERM antibody and 10 mM EDTA. […] The ratio of the 520 nm and 495 nm emission was used to analyze the data.
A general note: Time-resolved FRET reads energy transfer from a long-lived donor to a nearby acceptor.

For experiment [2], the target named is Recombinant G2019S-LRRK2 protein (Homo sapiens (Human), UniProt Q5S007, G2019S). Nature of the experiment: LRRK2 kinase activity, LanthaScreen TR-FRET assay (G2019S). Format: biochemical. The conditions noted are these: LRRKtide 400 nM, 25 μM ATP, 60 min. The protocol:
as §1, §2

Chain of Recombinant G2019S-LRRK2 protein (Q5S007 whole entry G2019S): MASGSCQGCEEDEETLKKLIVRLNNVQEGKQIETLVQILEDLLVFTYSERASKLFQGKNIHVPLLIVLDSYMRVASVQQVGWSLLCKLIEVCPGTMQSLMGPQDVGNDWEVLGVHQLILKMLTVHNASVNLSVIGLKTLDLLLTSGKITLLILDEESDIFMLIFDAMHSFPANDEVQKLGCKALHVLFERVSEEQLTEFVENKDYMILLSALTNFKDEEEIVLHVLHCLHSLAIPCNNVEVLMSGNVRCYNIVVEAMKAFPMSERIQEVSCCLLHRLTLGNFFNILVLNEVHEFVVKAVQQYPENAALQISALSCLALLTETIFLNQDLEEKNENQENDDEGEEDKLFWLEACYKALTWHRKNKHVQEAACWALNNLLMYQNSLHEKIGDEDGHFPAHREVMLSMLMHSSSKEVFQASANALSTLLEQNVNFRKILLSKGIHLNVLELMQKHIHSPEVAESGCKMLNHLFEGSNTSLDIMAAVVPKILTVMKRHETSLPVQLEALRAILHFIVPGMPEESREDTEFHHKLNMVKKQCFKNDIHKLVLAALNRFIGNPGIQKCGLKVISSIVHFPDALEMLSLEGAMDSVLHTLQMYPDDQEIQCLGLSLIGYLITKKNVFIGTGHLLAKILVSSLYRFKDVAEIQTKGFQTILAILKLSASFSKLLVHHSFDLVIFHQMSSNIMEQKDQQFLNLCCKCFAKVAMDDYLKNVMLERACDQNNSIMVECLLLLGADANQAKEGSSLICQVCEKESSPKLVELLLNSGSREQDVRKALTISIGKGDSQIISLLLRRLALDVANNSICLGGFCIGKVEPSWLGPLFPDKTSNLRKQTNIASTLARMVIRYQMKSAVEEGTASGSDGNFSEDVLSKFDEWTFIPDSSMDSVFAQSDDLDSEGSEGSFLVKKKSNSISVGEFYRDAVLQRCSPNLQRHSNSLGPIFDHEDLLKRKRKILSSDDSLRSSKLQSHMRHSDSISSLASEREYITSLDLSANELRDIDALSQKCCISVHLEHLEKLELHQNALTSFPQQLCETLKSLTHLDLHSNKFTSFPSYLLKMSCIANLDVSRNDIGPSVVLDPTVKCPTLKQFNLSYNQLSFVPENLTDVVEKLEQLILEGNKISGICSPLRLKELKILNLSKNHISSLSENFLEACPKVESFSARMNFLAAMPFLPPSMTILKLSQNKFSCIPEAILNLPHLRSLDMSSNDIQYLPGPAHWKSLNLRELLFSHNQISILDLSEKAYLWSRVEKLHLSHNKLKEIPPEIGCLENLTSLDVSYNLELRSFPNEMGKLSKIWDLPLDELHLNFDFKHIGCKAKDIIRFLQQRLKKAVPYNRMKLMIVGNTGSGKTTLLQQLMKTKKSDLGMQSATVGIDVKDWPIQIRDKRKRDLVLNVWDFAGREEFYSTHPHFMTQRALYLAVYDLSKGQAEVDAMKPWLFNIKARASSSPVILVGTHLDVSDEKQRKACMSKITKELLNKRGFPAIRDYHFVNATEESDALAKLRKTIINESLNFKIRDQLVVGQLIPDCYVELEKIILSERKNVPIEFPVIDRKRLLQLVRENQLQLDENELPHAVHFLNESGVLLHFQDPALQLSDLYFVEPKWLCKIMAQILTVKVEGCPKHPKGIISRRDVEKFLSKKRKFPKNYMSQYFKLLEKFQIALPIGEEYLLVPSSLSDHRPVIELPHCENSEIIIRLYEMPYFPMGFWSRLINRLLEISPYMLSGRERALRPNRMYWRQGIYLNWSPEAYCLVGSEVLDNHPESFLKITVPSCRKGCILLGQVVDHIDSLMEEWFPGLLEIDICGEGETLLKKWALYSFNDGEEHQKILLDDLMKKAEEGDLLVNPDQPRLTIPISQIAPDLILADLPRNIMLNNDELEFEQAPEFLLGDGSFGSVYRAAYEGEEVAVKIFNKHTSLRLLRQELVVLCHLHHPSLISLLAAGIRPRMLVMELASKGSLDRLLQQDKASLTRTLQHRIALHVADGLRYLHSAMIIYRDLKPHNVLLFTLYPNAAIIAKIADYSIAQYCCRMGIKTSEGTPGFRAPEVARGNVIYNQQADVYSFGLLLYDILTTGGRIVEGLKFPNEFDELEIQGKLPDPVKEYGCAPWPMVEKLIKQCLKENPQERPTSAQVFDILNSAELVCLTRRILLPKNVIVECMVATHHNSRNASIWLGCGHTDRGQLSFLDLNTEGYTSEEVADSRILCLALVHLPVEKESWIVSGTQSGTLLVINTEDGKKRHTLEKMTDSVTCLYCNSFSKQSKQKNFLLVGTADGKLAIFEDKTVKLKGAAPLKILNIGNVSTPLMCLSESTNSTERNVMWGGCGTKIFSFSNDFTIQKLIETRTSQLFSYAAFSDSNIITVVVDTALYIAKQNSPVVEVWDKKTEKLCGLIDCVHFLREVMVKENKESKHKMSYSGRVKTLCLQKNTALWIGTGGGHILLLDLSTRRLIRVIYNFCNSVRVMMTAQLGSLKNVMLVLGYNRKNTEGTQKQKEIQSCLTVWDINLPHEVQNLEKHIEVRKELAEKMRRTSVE
Chain of Recombinant wild type LRRK2 protein (Q5S007 whole entry): as the sequence (Q5S007 whole entry G2019S) above, with S2019G counted along it

Regarding `Cc1c(C#N)cnc(C(=O)Nc2ccc3[nH]nc(-c4cnc(C(C)C)o4)c3c2)c1C` [Example 181, 5-Cyano-N-(3-(2-isopropyloxazol-5-yl)-1H-indazol-5-yl)-3,4-dimethylpicolinamide], the IC50 in experiment [1] and in experiment [2] was less than 100 nM each time.
As for `Cc1nc(C(=O)Nc2ccc3[nH]nc(C)c3c2)c(Cl)c(C)c1C#N` [Example 275, 3-Chloro-5-cyano-4,6-dimethyl-N-(3-methyl-1H-indazol-5-yl)picolinamide], the concentration for half-maximal inhibition (IC50) (in general, the point on the concentration scale where inhibition reaches its midpoint) was 100 to 1000 nM in experiment [1] and less than 100 nM in experiment [2].
Turning to `Cc1cc(C#N)cnc1C(=O)Nc1cc2c(-c3ccoc3)n[nH]c2cn1` [Example 155], the figures for the IC50 in experiment [1] and in experiment [2] were 1000 to 10000 nM and less than 100 nM, respectively.
For `Cc1cc(C#N)cnc1C(=O)Nc1ccc2[nH]nc(-c3ccc(CN4CCOCC4)s3)c2c1` [Example 102, 5-Cyano-3-methyl-N-(3-(5-(morpholinomethyl)thiophen-2-yl)-1H-indazol-5-yl)picolinamide], the values for the IC50 in experiment [1] and in experiment [2] were 100 to 1000 nM and less than 100 nM, respectively.
Turning to `Cc1c(C#N)cnc(C(=O)Nc2ccc3[nH]nc(F)c3c2)c1C` [Example 315, 5-Cyano-N-(3-fluoro-1H-indazol-5-yl)-3,4-dimethylpicolinamide], the concentration for half-maximal inhibition (IC50) in experiment [1] is 1000 to 10000 nM; in experiment [2], less than 100 nM.
For `C=C(C)c1cc(C#N)cnc1C(=O)Nc1ccc2[nH]nc(C)c2c1` [Example 313, 5-Cyano-N-(3-methyl-1H-indazol-5-yl)-3-(prop-1-en-2-yl)picolinamide] the same measures were 1000 to 10000 nM and 100 to 1000 nM.
Consider `Cc1c(C(=O)Nc2ccc3[nH]nc(-c4ccoc4)c3c2)n[nH]c1C#N` [Example 133, 5-Cyano-N-(3-(furan-3-yl)-1H-indazol-5-yl)-4-methyl-1H-pyrazole-3-carboxamide], for which the values for the IC50 in experiment [1] and in experiment [2] were 100 to 1000 nM and less than 100 nM, respectively.
For `COc1nc(C(=O)Nc2ccc3[nH]nc(C)c3c2)c(C)c(C)c1C#N` [Example 322, 5-Cyano-6-methoxy-3,4-dimethyl-N-(3-methyl-1H-indazol-5-yl)picolinamide] the same measures were less than 100 nM and less than 100 nM.
For the compound `Cc1cc(C#N)cnc1C(=O)Nc1ccc2[nH]nc(OCc3ccccc3)c2c1` [Example 255, N-(3-(Benzyloxy)-1H-indazol-5-yl)-5-cyano-3-methylpicolinamide], the IC50 is 100 to 1000 nM in experiment [1] and less than 100 nM in experiment [2].
For the compound `COc1cc(-c2n[nH]c3ccc(NC(=O)c4ncc(C#N)cc4C(F)(F)F)cc23)ccn1` [Example 178, 5-Cyano-N-(3-(2-methoxypyridin-4-yl)-1H-indazol-5-yl)-3-(trifluoromethyl)picolinamide], the IC50 in experiment [1] and in experiment [2] was less than 100 nM throughout.
Turning to `Cc1cc(C#N)cnc1C(=O)Nc1ccc2[nH]nc(Br)c2c1` [Example 106, N-(3-Bromo-1H-indazol-5-yl)-5-cyano-3-methylpicolinamide], the figures for the IC50 in experiment [1] and in experiment [2] were 1000 to 10000 nM and less than 100 nM, respectively.
With `Cc1cc(C#N)cnc1C(=O)Nc1ccc2[nH]nc(C3COC3)c2c1` [Example 256, 5-Cyano-3-methyl-N-(3-(oxetan-3-yl)-1H-indazol-5-yl)picolinamide], the half-maximal inhibitory concentration (IC50) in experiment [1] and in experiment [2] was 1000 to 10000 nM throughout.
Regarding `Cc1cc(C#N)cnc1C(=O)Nc1ccc2[nH]nc(CCCN3CCCCC3)c2c1` [Example 323, 5-cyano-3-methyl-N-(3-(3-(piperidin-1-yl)propyl)-1H-indazol-5-yl)picolinamide], the concentration for half-maximal inhibition (IC50) in experiment [1] and in experiment [2] was more than 10000 nM in each case.
`Cc1c(C(=O)Nc2ccc3[nH]nc(-c4ccoc4)c3c2)c(C#N)nn1C` [Example 90, 3-Cyano-N-(3-(furan-3-yl)-1H-indazol-5-yl)-1,5-dimethyl-1H-pyrazole-4-carboxamide]: the IC50 in experiment [1] and in experiment [2] was less than 100 nM each time.
For `COc1cc(F)cc(-c2n[nH]c3ccc(NC(=O)c4ncc(C#N)cc4C)cc23)c1` [Example 46, 5-Cyano-N-(3-(3-fluoro-5-methoxyphenyl)-1H-indazol-5-yl)-3-methylpicolinamide], the figures for the half-maximal inhibitory concentration (IC50) in experiment [1] and in experiment [2] were 100 to 1000 nM and less than 100 nM, respectively.
As for `Cc1cc(C#N)cnc1C(=O)Nc1ccc2[nH]nc(-c3cccc(N(C)C)c3)c2c1` [Example 30, 5-Cyano-N-(3-(3-(dimethylamino)phenyl)-1H-indazol-5-yl)-3-methylpicolinamide], the IC50 in experiment [1] was 100 to 1000 nM; in experiment [2], less than 100 nM.
`Cc1cc(C#N)cnc1C(=O)Nc1ccc2[nH]nc(-c3cccc(P(C)(C)=O)c3)c2c1` [Example 319, 5-Cyano-N-(3-(3-(dimethylphosphoryl)phenyl)-1H-indazol-5-yl)-3-methylpicolinamide]: the figures for the half-inhibitory concentration (IC50) in experiment [1] and in experiment [2] were 100 to 1000 nM and less than 100 nM, respectively.
Consider `Cc1cc(C#N)cc(F)c1C(=O)Nc1ccc2[nH]nc(-c3cnco3)c2c1` [Example 190, 4-Cyano-2-fluoro-6-methyl-N-(3-(oxazol-5-yl)-1H-indazol-5-yl)benzamide], for which the IC50 in experiment [1] and in experiment [2] was less than 100 nM each time.
Regarding `C=Cc1nc(C(=O)Nc2ccc3[nH]nc(C4CC4)c3c2)c(C)c(C)c1C#N` [Example 332, 5-Cyano-N-(3-cyclopropyl-1H-indazol-5-yl)-3,4-dimethyl-6-vinylpicolinamide], the IC50 in experiment [1] is 100 to 1000 nM; in experiment [2], less than 100 nM.
Regarding `Cc1cc(-c2n[nH]c3ccc(NC(=O)c4ncc(C#N)cc4C)cc23)on1` [Example 235, 5-Cyano-3-methyl-N-(3-(3-methylisoxazol-5-yl)-1H-indazol-5-yl)picolinamide], the IC50 in experiment [1] and in experiment [2] was less than 100 nM throughout.
In the case of `Cn1c(C#N)cnc1C(=O)Nc1ccc2[nH]nc(-c3ccoc3)c2c1` [Example 96, 5-Cyano-N-(3-(furan-3-yl)-1H-indazol-5-yl)-1-methyl-1H-imidazole-2-carboxamide], the half-maximal inhibitory concentration (IC50) in experiment [1] and in experiment [2] was 100 to 1000 nM throughout.
Consider `COc1n[nH]c2ccc(NC(=O)c3ncc(C#N)c(C(F)(F)F)c3C)cc12` [Example 285, 5-Cyano-N-(3-methoxy-1H-indazol-5-yl)-3-methyl-4-(trifluoromethyl)picolinamide], for which the IC50 is 1000 to 10000 nM in experiment [1] and less than 100 nM in experiment [2].
On the same counts, the results for `Cc1cc(C#N)cnc1C(=O)Nc1ccc2[nH]nc(-c3cnco3)c2c1` [Example 111, 5-Cyano-3-methyl-N-(3-(oxazol-5-yl)-1H-indazol-5-yl)picolinamide] are 100 to 1000 nM and less than 100 nM.
`Cc1cnc(-c2n[nH]c3ccc(NC(=O)c4ncc(C#N)c(C)c4C)cc23)o1` [Example 207, 5-Cyano-3,4-dimethyl-N-(3-(5-methyloxazol-2-yl)-1H-indazol-5-yl)picolinamide]: the 50% inhibitory concentration (IC50) in experiment [1] and in experiment [2] was less than 100 nM each time.
As to `Cc1c(C#N)cnc(C(=O)Nc2ccc3[nH]nc(C4CC4)c3c2)c1C` [Example 223, 5-Cyano-N-(3-cyclopropyl-1H-indazol-5-yl)-3,4-dimethylpicolinamide], the IC50 in experiment [1] is 1000 to 10000 nM; in experiment [2] it was less than 100 nM.
Turning to `Cc1cc(C#N)cnc1C(=O)Nc1ccc2[nH]nc(-c3ccco3)c2c1` [Example 29, 5-Cyano-N-(3-(furan-2-yl)-1H-indazol-5-yl)-3-methylpicolinamide], the concentration for half-maximal inhibition (IC50) in experiment [1] is 100 to 1000 nM; in experiment [2], less than 100 nM.
For `Cc1cc(C#N)ncc1C(=O)Nc1ccc2[nH]nc(-c3ccoc3)c2c1` [Example 49, 6-Cyano-N-(3-(furan-3-yl)-1H-indazol-5-yl)-4-methylnicotinamide], the IC50 was 100 to 1000 nM in experiment [1] and less than 100 nM in experiment [2].
On the same counts, the results for `Cc1c(C#N)cnc(C(=O)Nc2ccc3[nH]nc(-c4cnco4)c3c2)c1C` [Example 158, 5-Cyano-3,4-dimethyl-N-(3-(oxazol-5-yl)-1H-indazol-5-yl)picolinamide] are less than 100 nM and less than 100 nM.
Regarding `Cc1cc(C#N)cnc1C(=O)Nc1ccc2[nH]nc(NC(=O)c3ccccc3)c2c1` [Example 135, N-(3-Benzamido-1H-indazol-5-yl)-5-cyano-3-methylpicolinamide], the results for the IC50 in experiment [1] and in experiment [2] were 1000 to 10000 nM and 100 to 1000 nM, respectively.
In the case of `N#Cc1cc(C(=O)Nc2ccc3[nH]nc(-c4ccoc4)c3c2)ns1` [Example 91, 5-Cyano-N-(3-(furan-3-yl)-1H-indazol-5-yl)isothiazole-3-carboxamide], the IC50 in experiment [1] and in experiment [2] was less than 100 nM in each case.
Turning to `Cc1cc(C#N)cnc1C(=O)Nc1ccc2[nH]nc(-c3cnsc3)c2c1` [Example 160, 5-Cyano-N-(3-(isothiazol-4-yl)-1H-indazol-5-yl)-3-methylpicolinamide], the IC50 in experiment [1] and in experiment [2] was less than 100 nM in each case.
For `Cc1cc(C#N)nnc1C(=O)Nc1ccc2[nH]nc(-c3ccoc3)c2c1` [Example 162, 6-Cyano-N-(3-(furan-3-yl)-1H-indazol-5-yl)-4-methylpyridazine-3-carboxamide], the IC50 in experiment [1] is 100 to 1000 nM; in experiment [2] it was less than 100 nM.
In the case of `Cc1nc(C(=O)Nc2ccc3[nH]nc(-c4ccoc4)c3c2)ccc1C#N` [Example 13, 5-Cyano-N-(3-(furan-3-yl)-1H-indazol-5-yl)-6-methylpicolinamide], the values for the IC50 in experiment [1] and in experiment [2] were 100 to 1000 nM and less than 100 nM, respectively.
Take `CC(C)=Cc1n[nH]c2ccc(NC(=O)c3ncc(C#N)c(C)c3C)cc12` [Example 243, 5-Cyano-3,4-dimethyl-N-(3-(2-methylprop-1-en-1-yl)-1H-indazol-5-yl)picolinamide]: the IC50 in experiment [1] is 100 to 1000 nM; in experiment [2] it was less than 100 nM.
